Data on eight molecules can be found in ChEMBL document CHEMBL1201862, “PubChem BioAssay data set” (2004).

Test systems include HT-29; MDA-MB-435; RPMI-8226; SW-620; SK-MEL-28; SF-268; SR; LOX IMVI; OVCAR-5; MCF7; HL-60; Malme-3M; NCI-H460; TK-10; SF-539; A549; PC-3; COLO 205; UACC-62; SK-MEL-2.
What all share (test): NCI anticancer screen, dose series, 48 h

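Where inhibition never reached the appropriate level, the endpoint shown equals the highest concentration tested. Otherwise, values were interpolated linearly from a five-concentration, 48-hour dose response in 96-well plates. At the GI50, growth is halved.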 Activity calls are given as the source filed them. Cut-off read from the data, not from the text of the source: active = GI50 up to about 1.1 µM and inactive = higher.

As for `COC(=O)c1ccc(C)cc1C1CN=NC12Cc1cc(C)c(C)cc1C2=O` (stereo unspecified), the GI50 with HT-29 was 25.3 µM (inactive); in the test with MDA-MB-435, 24.9 µM (inactive); in the test on RPMI-8226 it was 27.9 µM (inactive); with SW-620, 35.6 µM (inactive); in the test with SK-MEL-28, 45.7 µM (inactive); with SF-268, 36.6 µM (inactive). In addition, the GI50 in the test on SR was 48.5 µM (inactive); in the test with LOX IMVI, 25.9 µM (inactive); with OVCAR-5 it was > 100 µM (inactive); in the test with MCF7, 38.7 µM (inactive); with HL-60, 19.7 µM (inactive); with Malme-3M, 30.5 µM (inactive). The GI50 in the test with NCI-H460 was 37.7 µM (inactive); in the test with TK-10, > 100 µM (inactive); with SF-539 it was 50.6 µM (inactive); in the test on A549, 34.4 µM (inactive).

Regarding `CC(O)(c1ccccc1)c1nccc2ccccc12` (stereo unspecified), the GI50 is 74.3 µM (inactive) in the test with HT-29; 18.2 µM (inactive) in the test on MDA-MB-435; 37.3 µM (inactive) in the test on RPMI-8226; 77.6 µM (inactive) in the test on SW-620; > 100 µM (inactive) in the test on SK-MEL-28; 95.7 µM (inactive) in the test on SF-268. The GI50 with PC-3 is 22.6 µM (inactive); in the test with LOX IMVI it was 75.9 µM (inactive); in the test on OVCAR-5, 67.1 µM (inactive); in the test on MCF7, 80.9 µM (inactive); in the test with COLO 205, 70.6 µM (inactive); in the test on UACC-62, 50.6 µM (inactive). Besides, the GI50 in the test on HL-60 is > 100 µM (inactive); with Malme-3M, 64.1 µM (inactive); in the test on NCI-H460, 96.4 µM (inactive); in the test on TK-10, > 100 µM (inactive); in the test with A549, 87.3 µM (inactive).

With `C=CCOC(=O)CCCCCCCCCCCCCCCOC(=O)C1=C(CCC[C@@H](C)O[Si](C)(C)C(C)(C)C)NC(=O)N2[C@H](CC3(CC/C=C\[C@H](CC)O[Si](C(C)C)(C(C)C)C(C)C)OCCO3)CC[C@H]12`, the GI50 in the test on MDA-MB-435, in the test on SK-MEL-2, in the test with RPMI-8226, with SK-MEL-28, in the test on SF-268 and in the test with PC-3 was > 100 µM (inactive) each time. In addition, the GI50 in the test on OVCAR-5, with MCF7, in the test with COLO 205, in the test with UACC-62, in the test with Malme-3M and in the test on NCI-H460 was > 100 µM (inactive) throughout. Further, the GI50 with TK-10 is > 100 µM (inactive); in the test on SF-539 it was 67.3 µM (inactive); in the test with A549 it was > 100 µM (inactive).

With `CCOC(=O)c1cc(Sc2ccc(N)c(C(=O)OCC)c2)ccc1N`, the GI50 in the test on HT-29 was 28.8 µM (inactive); with SK-MEL-2, > 100 µM (inactive); in the test on RPMI-8226 it was 24 µM (inactive); with SW-620, > 100 µM (inactive); in the test with SK-MEL-28, > 100 µM (inactive); in the test on SF-268 it was 16.1 µM (inactive). The GI50 in the test on PC-3 is 11.4 µM (inactive); in the test on SR it was 6.95 µM (inactive); with OVCAR-5 it was 12.1 µM (inactive); in the test on MCF7, 13.2 µM (inactive); with COLO 205 it was 60.8 µM (inactive); with UACC-62, 9.42 µM (inactive). Further, the GI50 is 16.7 µM (inactive) in the test with HL-60; 11.6 µM (inactive) in the test on Malme-3M; 78.2 µM (inactive) in the test on NCI-H460; 24.9 µM (inactive) in the test with SF-539; 19.6 µM (inactive) in the test on A549.

On to `O=c1[nH][nH]c(=O)n1Cc1ccccc1Cn1c(=O)[nH][nH]c1=O`, for which the GI50 with HT-29, with MDA-MB-435, in the test on SK-MEL-2, in the test with RPMI-8226, in the test with SW-620 and in the test on SK-MEL-28 was > 100 µM (inactive) each time. In addition, the GI50 in the test on SF-268, with PC-3, in the test with LOX IMVI, in the test on OVCAR-5, in the test on COLO 205 and in the test with UACC-62 was > 100 µM (inactive) throughout. Besides, the GI50 in the test on HL-60, in the test on Malme-3M, in the test on NCI-H460, in the test on TK-10, in the test with SF-539 and in the test with A549 was > 100 µM (inactive) throughout.

Consider `COC(=O)Cc1c(C2C(CC(=O)OC)c3ccccc3N2C2OC(CO)C(O)C(O)C2O)[nH]c2ccccc12` (stereo unspecified), for which the GI50 in the test with HT-29, with MDA-MB-435, in the test with SK-MEL-2, in the test on RPMI-8226, in the test on SW-620 and in the test on SK-MEL-28 was > 100 µM (inactive) throughout. Also, the GI50 in the test on SF-268, with PC-3, with SR, in the test on OVCAR-5, in the test on COLO 205 and in the test with UACC-62 was > 100 µM (inactive) throughout. Further, the GI50 with Malme-3M, with NCI-H460, in the test on TK-10 and in the test with A549 was > 100 µM (inactive) throughout.

For the molecule `C/C(=N\NC(N)=S)c1ccc2c(c1)Sc1ccccc1O2`, the GI50 with HT-29 is 1.61 µM (inactive); in the test on MDA-MB-435, 0.29 µM (active); in the test with SK-MEL-2, 2.11 µM (inactive); with RPMI-8226, 2.16 µM (inactive); with SW-620 it was 2.56 µM (inactive); with SK-MEL-28, 3.81 µM (inactive). Further, the GI50 with SF-268 was 2.36 µM (inactive); in the test on PC-3, 2.59 µM (inactive); in the test with SR it was 0.485 µM (active); in the test with LOX IMVI, 2.62 µM (inactive); in the test with OVCAR-5, 4.01 µM (inactive); in the test with COLO 205 it was 1.1 µM (active). Also, the GI50 was 2.42 µM (inactive) in the test on UACC-62; 3.88 µM (inactive) with HL-60; 5.53 µM (inactive) in the test on Malme-3M; 2.83 µM (inactive) with NCI-H460; 3.73 µM (inactive) in the test with TK-10; 2.26 µM (inactive) with SF-539. The GI50 with A549 is 2.5 µM (inactive).

For `Nc1c(C(=O)c2ccccc2)[nH]c(NCc2ccccc2)c1C(=S)Nc1ccccc1`, the GI50 with HT-29, in the test on MDA-MB-435, in the test with SK-MEL-2, in the test with SW-620, in the test with SK-MEL-28 and in the test with SF-268 was > 100 µM (inactive) in each case. The GI50 in the test on SR, with LOX IMVI, in the test with OVCAR-5, with MCF7, in the test on COLO 205 and with UACC-62 was > 100 µM (inactive) in each case. Moreover, the GI50 with HL-60, with Malme-3M, with NCI-H460, in the test with TK-10, with SF-539 and in the test with A549 was > 100 µM (inactive) each time.
